Experimental data taken from US7138389B2, “Oral androgen therapy using modulators of testosterone bioavailability” (University of Washington, priority 2004, dated 2006).
Where two headings read alike, the source gives them in different places. Marks after values point to notes of the source that are not given here. Where a SMILES comes first, the peptide text is derived from it. [ ]: non-standard residue; d: D form. dPhe(4-NH2) = Nc1ccc(C[C@@H](N)C(=O)O)cc1; dPhe(4-Cl) = N[C@H](Cc1ccc(Cl)cc1)C(=O)O; Phe(4-NH2) = Nc1ccc(C[C@H](N)C(=O)O)cc1; d2Nal = N[C@H](Cc1ccc2ccccc2c1)C(=O)O; Lys(iPr) = CC(C)NCCCC[C@H](N)C(=O)O; d3Pal = N[C@H](Cc1cccnc1)C(=O)O

Legend:
[1] = Serum testosterone pharmacokinetics after single oral doses of testosterone or testosterone enanthate in oil with and without dutasteride (Example 2); details: for maximum concentration of testosterone versus normal range: normal range 8.7–33 nmol/L; for serum testosterone after oral administration in oil: 200, 400, 800 mg, all men; for Testosterone AUC (area under-the-curve): serum testosterone, mean ± SD
Experimental: (§1) Study Design: Participants were randomly assigned to one of two groups: 1) oral testosterone in sesame oil, or 2) oral testosterone enanthate in sesame oil (Delatestryl, BTG Pharmaceuticals, Iselin, N.J.) at a concentration of 200 mg/ml. A sample size of seven subjects per group was estimated to have an 80% power with an α of 0.05 to detect a 50% in the change in serum testosterone area-under-the curve between doses. The oral testosterone enanthate in sesame oil was manufactured by the compounding pharmacy at the University of Washington. Briefly, micronized testosterone (U.S.P. grade, Spectrum Quality Projects, Gardena, Calif., USA) was suspended at 100 mg/ml in sesame oil (N.F. grade, Spectrum Quality Projects, Gardena, Calif., USA), and mixed thoroughly on a magnetic stir plate to create a homogenous testosterone enanthate/sesame oil emulsion. The compounding pharmacist then drew up the emulsion into syringes at the desired dose levels (200, 400 and 800 mg). The dose of oral testosterone enanthate in sesame oil was normalized for the testosterone content, so that the subjects in the testosterone enanthate group (molecular weight 397) were administered 276, 554 and 1108 mg of testosterone enanthate, corresponding to 200, 400 and 800 mg of testosterone.
(§2) The drug exposure period lasted 12 days (FIG. 6). […] One, two and three days after acyline administration, as per the protocol of FIG. 6, subjects drank 200, 400 or 800 mg of testosterone or testosterone enthanate in oil, mixed with 8 oz of whole milk. These doses were repeated days eight, nine and ten days after the acyline injection. […] For safety, subjects underwent daily testing of liver function (AST, bilirubin, alkaline phosphatase), kidney function (BUN, creatinine) and hematopoiesis (hemoglobin and hematocrit).
(§3) Total serum testosterone was measured by a radioimmunoassay (Diagnostic Products Corporation, Los Angeles, Calif.). […] The normal range was 8.7–33 nmol/L. DHT was measured using an RIA Kit (Diagnostic Systems Laboratory, Los Angeles, Calif.). The sensitivity of this assay was 0.043 nmol/L and the intra-assay variation for mid and low-range pools was 9.9% and 11%, with interassay coefficients of variations of 19 and 25%. […] The normal range was 3.2–47 nmol/L. The normal ranges for testosterone, DHT and SHBG were determined in our laboratory using serum samples obtained from 100 normal men aged 20–50 years.
Statistics: Hormone were log transformed prior to analysis. […] Changes between groups were analyzed by ANOVA. Statistical analyses were performed using STATA ([…], Tex., USA). Type I error was set at 0.05 for all analyses.

[2] = Serum DHT pharmacokinetics after single oral doses of testosterone or testosterone enanthate in oil with and without dutasteride (Example 2); details: 200, 400, 800 mg; all men
Experimental: as §1, with “The compounding pharmacist then drew up the emulsion into syringes at the desired dose levels (200, 400 and 800 mg). The dose of oral testosterone enanthate in sesame oil was normalized for the testosterone content, so that the subjects in the testosterone enanthate group (molecular weight 397) were administered 276, 554 and 1108 mg of testosterone enanthate, corresponding to 200, 400 and 800 mg of testosterone.” left out
as §3, with “Calif.).” for “Calif.). The sensitivity of this assay was 0.043 nmol/L and the intra-assay variation for mid and low-range pools was 9.9% and 11%, with interassay coefficients of variations of 19 and 25%.”
Statistics: Hormone were log transformed prior to analysis. […] Changes between groups were analyzed by ANOVA. […]

[3] = cited from earlier work
[4] = system: serum proteins (SHBG, albumin); details: cited from earlier work
[5] = in vivo; cited from earlier work
[6] = system: endogenous testosterone production; details: cited from earlier work
[7] = set-up: species or system human; details: in vivo
Description: The drug exposure period lasted 12 days (FIG. 6).

[8] = system: endogenous testosterone production; assay: Suppression of endogenous testosterone production by GnRH antagonist acyline; format: in vivo, human
Experimental: as §2, §3

5-α-reductase = details: cited from earlier work
[9] = men receiving testosterone by intramuscular administration; cited from earlier work

## CCCCCCC(=O)O[C@H]1CC[C@H]2[C@@H]3CCC4=CC(=O)CC[C@]4(C)[C@H]3CC[C@]12C [Testosterone Enanthate-only, testosterone enanthate]
[1]; 400 mg oral dose in oil
  maximum concentration of testosterone versus normal range: exceeding the normal range
[1]; 800 mg oral dose in oil
  maximum concentration of testosterone versus normal range: exceeding the normal range
[1]
  serum testosterone after oral administration in oil: significantly increased in all men in a dose-dependent fashion
[2]
  serum DHT after oral administration in oil: significantly increased the serum DHT in all men in a dose-dependent fashion

## CCCCCCCCCCC(=O)O[C@H]1CC[C@H]2[C@@H]3CCC4=CC(=O)CC[C@]4(C)[C@H]3CC[C@]12C [Testosterone undecanoate]
[3]; oral (Bagchus et al.)
  effect of food intake on absorption: dramatically improved
[3]; oral
  serum DHT on oral TU therapy: well above the normal range
  serum testosterone on oral TU therapy: therapeutic increases

## C[C@]12CC[C@H]3[C@@H](CCC4=CC(=O)CC[C@@]43C)[C@@H]1CC[C@@H]2O [Testosterone-only, testosterone]
[3]; 200 mg doses of oral testosterone, for up to eight hours
  effect on serum testosterone levels: elevate serum testosterone levels to the low normal range
[3]; oral unmodified testosterone at doses up to 100 mg, deficient men
  effect on serum testosterone levels: little effect
[1]; 800 mg oral dose in oil
  maximum concentration of testosterone versus normal range: exceeding the normal range
[1]
  serum testosterone after oral administration in oil: significantly increased in all men in a dose-dependent fashion
[1]; single oral dose 200 mg in oil
  Testosterone AUC (area under-the-curve): 124 ± 28 nmol·h/L
[1]; single oral dose 200 mg in oil, listed as testosterone-alone
  Testosterone AUC (area under-the-curve): 124 ± 28 nmol·h/L
[1]; single oral dose 400 mg in oil
  Testosterone AUC (area under-the-curve): 208 ± 74^a nmol-hours/L
[1]; single oral dose 400 mg in oil, listed as testosterone-alone
  Testosterone AUC (area under-the-curve): 208 ± 74 nmol·h/L
[1]; single oral dose 800 mg in oil
  Testosterone AUC (area under-the-curve): 328 ± 72^a nmol-hours/L
[1]; single oral dose 800 mg in oil, listed as testosterone-alone
  Testosterone AUC (area under-the-curve): 328 ± 82 nmol·h/L
[4]
  blood testosterone bound to serum proteins: About 98%
  circulating plasma testosterone bound to sex hormone-binding globulin (SHBG): Approximately 40%
[4]; plasma
  circulating plasma testosterone unbound (free): 2%
[2]
  serum DHT after oral administration in oil: significantly increased the serum DHT in all men in a dose-dependent fashion
[5]
  half-life of testosterone, reported values: 10 to 100 min

## CC(=O)Nc1ccc(C[C@H](NC(=O)[C@H](CO)NC(=O)[C@@H](Cc2cccnc2)NC(=O)[C@@H](Cc2ccc(Cl)cc2)NC(=O)[C@@H](Cc2ccc3ccccc3c2)NC(C)=O)C(=O)N[C@H](Cc2ccc(NC(C)=O)cc2)C(=O)N[C@@H](CC(C)C)C(=O)N[C@@H](CCCCNC(C)C)C(=O)N2CCC[C@H]2C(=O)N[C@H](C)C(N)=O)cc1 [acyline] (Ac-[d2Nal][dPhe(4-Cl)][d3Pal]S[Phe(4-NH2)](Ac)[dPhe(4-NH2)](Ac)L[Lys(iPr)]P[dA]-NH2)
[6]; previously shown (Herbst et al.)
  duration of suppression of endogenous testosterone production in men: 2 weeks
[6]; single injection 300 mcg/kg SQ
  duration of suppression of testosterone production in normal men: ≥ 15 days
[7]
  injection-site reaction: transient pruritis
[8]; all subjects, Day 0 DHT 1.6±0.6, P<0.05
  serum DHT 24 hours after acyline administration (day 1): 0.6 ± 0.2 nmol/L
[8]; all subjects, acyline 300 mcg/kg SQ, day zero 20.0±7.4, P<0.0001
  serum testosterone 24 hours after acyline administration (day one): 2.3 ± 0.5 nmol/L
[8]; testosterone enanthate group
  serum DHT 24-hours post acyline: 0.6 ± 0.2 nmol/L
  serum testosterone 24-hours post acyline: 2.3 ± 0.8 nmol/L
[8]; testosterone group
  serum DHT 24-hours post acyline: 0.5 ± 0.2 nmol/L
  serum testosterone 24-hours post acyline: 2.3 ± 0.7 nmol/L

## CC(C)(C)NC(=O)[C@H]1CC[C@H]2[C@@H]3CC[C@H]4NC(=O)C=C[C@]4(C)[C@H]3CC[C@]12C [finasteride, (5α,17beta)-N-(1,1-dimethylethyl)-3-oxo-4-azaandrost-1-ene-17-carboxamide]
5-α-reductase; administration of finasteride
  reduction of prostate DHT levels: 90%
  reduction of serum DHT levels: 70%
5-α-reductase; men given finasteride (Gormley et al.)
  increase of testosterone levels: about 10%
[9]
  levels of serum testosterone: without substantial effect
